The target in experiment [1] is GABA-A receptor; anion channel. In words: GPCRScan assay: inhibition of GABAA. The class given is protein-complex assay, Rattus norvegicus. The arrangement: radioligand conc. used [nm] 9.50 – 25.0, parental cells brain tissue.
Experiment [2] deals with CDK7/Cyclin H/MNAT1 (Homo sapiens) (UniProt P51946+P50613+P51948). In words: Cyclin-dependent kinase 7 / cyclinH / MAT Millipore kinase panel. It is filed as protein-complex assay. The note with it: Compound concentration 10.0 uM.
For experiment [3], the target named is Dual specificity mitogen-activated protein kinase kinase 1 (Homo sapiens) (UniProt Q02750). In words: mitogen-activated protein kinase kinase 1 Millipore kinase panel. The following applies: Compound concentration 10.0 uM.
The target in experiment [4] is Mitogen-activated protein kinase kinase kinase 9 (Homo sapiens) (UniProt P80192). In words: mitogen-activated protein kinase kinase kinase 9 Millipore kinase panel. The note with it: Compound concentration 10.0 uM.
Experiment [5] has as its target Homeodomain-interacting protein kinase 2 (Homo sapiens) (UniProt Q9H2X6). In words: homeodomain interacting protein kinase 2 Millipore kinase panel. The note with it: Compound concentration 10.0 uM.
The target in experiment [6] is Cyclin-dependent kinase 5/CDK5 activator 1 (Homo sapiens) (UniProt Q00535+Q15078). In words: cyclin-dependent kinase 5 / p25 Millipore kinase panel. It is filed as protein-complex assay. The note with it: Compound concentration 10.0 uM.
The target in experiment [7] is Tyrosine-protein kinase Yes (Homo sapiens) (UniProt P07947). In words: v-yes-1 Yamaguchi sarcoma viral oncogene homolog 1 Millipore kinase panel. The note with it: Compound concentration 10.0 uM.
Experiment [8] has as its target 5-hydroxytryptamine receptor 6 (Homo sapiens) (UniProt P50406). In words: h5HT6 Cerep panel. The following applies: Compound concentration 10.0 uM.
Experiment [9] addresses Vasoactive intestinal polypeptide receptor 1 (Homo sapiens) (UniProt P32241). In words: hVPAC1 Cerep panel. The following applies: Compound concentration 10.0 uM.
For experiment [10], the target named is Protein-tyrosine kinase 2-beta (Homo sapiens) (UniProt Q14289). In words: PTK2B protein tyrosine kinase 2 beta Millipore kinase panel. The note with it: Compound concentration 10.0 uM.
For experiment [11], the species on record is Rattus norvegicus. In words: rK_ATP potassium channel Cerep panel. The following applies: Compound concentration 10.0 uM.
The target in experiment [12] is Serine/threonine-protein kinase pim-1 (Homo sapiens) (UniProt P11309). In words: pim-1 oncogene Millipore kinase panel. The following applies: Compound concentration 10.0 uM.
The species named for experiment [13] is Rattus norvegicus. In words: rBZD Cerep panel. The note with it: Compound concentration 10.0 uM.
The target in experiment [14] is Cannabinoid receptor 2 (Homo sapiens) (UniProt P34972). In words: hCB2 Cerep panel. The note with it: Compound concentration 10.0 uM.
Experiment [15] deals with Somatostatin receptor (Mus musculus) (UniProt P30935+O08858+P30875+P30873+P49660). In words: mSST Cerep panel. It is filed as protein assay. The note with it: Compound concentration 10.0 uM.
Experiment [16] has as its target Mitogen-activated protein kinase 8 (Homo sapiens) (UniProt P45983). In words: mitogen-activated protein kinase 8 Millipore kinase panel. The note with it: Compound concentration 10.0 uM.
Experiment [17] deals with Neuropeptide Y receptor type 2 (Homo sapiens) (UniProt P49146). In words: hNPY2 Cerep panel. The note with it: Compound concentration 10.0 uM.
For experiment [18], the target named is P2X receptor (Rattus norvegicus) (UniProt P51579+P49653+P51578+Q64663+P47824+P51577+P49654). In words: rP2X Cerep panel. It is filed as protein assay. The note with it: Compound concentration 10.0 uM.
Experiment [19] deals with Tyrosine-protein kinase Lck (Homo sapiens) (UniProt P06239). In words: hLck Cerep panel. The note with it: Compound concentration 10.0 uM.
Experiment [20] concerns the target cGMP-dependent protein kinase 1 (Homo sapiens) (UniProt Q13976). In words: protein kinase, cGMP-dependent, type I Millipore kinase panel. The note with it: Compound concentration 10.0 uM.
Experiment [21] concerns the target Serine/threonine-protein kinase Sgk1 (Homo sapiens) (UniProt O00141). In words: serum/glucocorticoid regulated kinase 1 Millipore kinase panel. The following applies: Compound concentration 10.0 uM.
Experiment [22] deals with Serine/threonine-protein kinase PAK 5 (Homo sapiens) (UniProt Q9P286). In words: p21 protein -activated kinase 5 Millipore kinase panel. The note with it: Compound concentration 10.0 uM.
For experiment [23], the target named is Vasopressin V1a receptor (Homo sapiens) (UniProt P37288). In words: hV1a Cerep panel. The following applies: Compound concentration 10.0 uM.
Experiment [24] deals with Ribosomal protein S6 kinase alpha-1 (Homo sapiens) (UniProt Q15418). In words: ribosomal protein S6 kinase, 90kDa, polypeptide 1 Millipore kinase panel. The following applies: Compound concentration 10.0 uM.
For experiment [25], the target named is Muscarinic acetylcholine receptor M3 (Homo sapiens) (UniProt P20309). In words: hM3 Cerep panel. The note with it: Compound concentration 10.0 uM.
Experiment [26] has as its target Mitogen-activated protein kinase 13 (Homo sapiens) (UniProt O15264). In words: mitogen-activated protein kinase 13 Millipore kinase panel. The following applies: Compound concentration 10.0 uM.
Experiment [27] addresses Glucocorticoid receptor (Homo sapiens) (UniProt P04150). In words: hGR Cerep panel. The note with it: Compound concentration 10.0 uM.
The target of experiment [28] is Serine/threonine-protein kinase Sgk2 (Homo sapiens) (UniProt Q9HBY8). In words: serum/glucocorticoid regulated kinase 2 Millipore kinase panel. The note with it: Compound concentration 10.0 uM.
In experiment [29] the target is Mitogen-activated protein kinase 1 (Homo sapiens) (UniProt P28482). In words: mitogen-activated protein kinase 1 Millipore kinase panel. The following applies: Compound concentration 10.0 uM.
For experiment [30], the target named is 3',5'-cyclic-AMP phosphodiesterase 4D (Homo sapiens, UniProt Q08499). In words: hPDE4D2 Cerep panel. The note with it: Compound concentration 10.0 uM.
Experiment [31] concerns the target Melanocortin receptor 4 (Homo sapiens) (UniProt P32245). In words: hMC4 Cerep panel. The following applies: Compound concentration 10.0 uM.
Experiment [32] concerns the target Homeodomain-interacting protein kinase 1 (Homo sapiens) (UniProt Q86Z02). In words: homeodomain interacting protein kinase 1 Millipore kinase panel. The following applies: Compound concentration 10.0 uM.
In experiment [33] the target is cGMP-inhibited 3',5'-cyclic phosphodiesterase 3A (Homo sapiens, UniProt Q14432). In words: hPDE3A PDE scan.
Experiment [34] has as its target Protein-tyrosine kinase 6 (Homo sapiens) (UniProt Q13882). In words: PTK6 protein tyrosine kinase 6 Millipore kinase panel. The note with it: Compound concentration 10.0 uM.
The target of experiment [35] is Progesterone receptor (Homo sapiens) (UniProt P06401). In words: hPR Cerep panel. The note with it: Compound concentration 10.0 uM.
For experiment [36], the species on record is Rattus norvegicus. In words: rGABA Cerep panel. The note with it: Compound concentration 10.0 uM.
For experiment [37], the target named is Adenosine receptor A1 (Homo sapiens) (UniProt P30542). In words: hA1 Cerep panel. The note with it: Compound concentration 10.0 uM.
In experiment [38] the target is Alpha-2A adrenergic receptor (Rattus norvegicus) (UniProt P22909). In words: rAa2 Cerep panel. The note with it: Compound concentration 10.0 uM.
The target of experiment [39] is Serine/threonine-protein kinase pim-3 (Homo sapiens) (UniProt Q86V86). In words: pim-3 oncogene Millipore kinase panel. The note with it: Compound concentration 10.0 uM.
Experiment [40] addresses T1, Alpha-1B adrenergic receptor (Homo sapiens) (UniProt P35368).
T1 sequence (whole entry): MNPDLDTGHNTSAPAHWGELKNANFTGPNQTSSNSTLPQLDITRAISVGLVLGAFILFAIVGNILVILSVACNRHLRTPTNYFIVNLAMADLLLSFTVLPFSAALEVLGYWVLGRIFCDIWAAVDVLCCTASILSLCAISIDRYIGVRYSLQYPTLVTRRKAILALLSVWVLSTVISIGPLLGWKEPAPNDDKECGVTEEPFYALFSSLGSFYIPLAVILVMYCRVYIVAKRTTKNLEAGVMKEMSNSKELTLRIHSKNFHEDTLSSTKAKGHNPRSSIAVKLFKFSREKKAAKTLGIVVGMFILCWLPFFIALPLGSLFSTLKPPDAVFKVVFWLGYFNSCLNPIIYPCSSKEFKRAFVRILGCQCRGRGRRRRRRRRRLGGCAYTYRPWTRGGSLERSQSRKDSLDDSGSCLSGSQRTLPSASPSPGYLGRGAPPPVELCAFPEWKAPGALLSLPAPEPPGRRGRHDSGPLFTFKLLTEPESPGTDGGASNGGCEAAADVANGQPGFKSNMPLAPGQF
In words: hAb1 Cerep panel. The note with it: Compound concentration 10.0 uM.

Experiment [41] deals with Tyrosine-protein kinase Tec (Homo sapiens) (UniProt P42680). In words: tec protein tyrosine kinase (activated) Millipore kinase panel. The following applies: Compound concentration 10.0 uM.
Experiment [42] concerns the target Serine/threonine-protein kinase PLK1 (Homo sapiens) (UniProt P53350). In words: polo-like kinase 1 Millipore kinase panel. The note with it: Compound concentration 10.0 uM.
Experiment [43] addresses 5-hydroxytryptamine receptor 2C (Homo sapiens, UniProt P28335). In words: GPCRScan assay: inhibition of 5-HT2C. Also on record: radioligand conc. used [nm] 1.0 – 2.5, parental cells HEK T.
The target in experiment [44] is cAMP and cAMP-inhibited cGMP 3',5'-cyclic phosphodiesterase 10A (Homo sapiens, UniProt Q9Y233). In words: hPDE10A2 PDE scan.

Chain of 3',5'-cyclic-AMP phosphodiesterase 4D (Q08499 whole entry): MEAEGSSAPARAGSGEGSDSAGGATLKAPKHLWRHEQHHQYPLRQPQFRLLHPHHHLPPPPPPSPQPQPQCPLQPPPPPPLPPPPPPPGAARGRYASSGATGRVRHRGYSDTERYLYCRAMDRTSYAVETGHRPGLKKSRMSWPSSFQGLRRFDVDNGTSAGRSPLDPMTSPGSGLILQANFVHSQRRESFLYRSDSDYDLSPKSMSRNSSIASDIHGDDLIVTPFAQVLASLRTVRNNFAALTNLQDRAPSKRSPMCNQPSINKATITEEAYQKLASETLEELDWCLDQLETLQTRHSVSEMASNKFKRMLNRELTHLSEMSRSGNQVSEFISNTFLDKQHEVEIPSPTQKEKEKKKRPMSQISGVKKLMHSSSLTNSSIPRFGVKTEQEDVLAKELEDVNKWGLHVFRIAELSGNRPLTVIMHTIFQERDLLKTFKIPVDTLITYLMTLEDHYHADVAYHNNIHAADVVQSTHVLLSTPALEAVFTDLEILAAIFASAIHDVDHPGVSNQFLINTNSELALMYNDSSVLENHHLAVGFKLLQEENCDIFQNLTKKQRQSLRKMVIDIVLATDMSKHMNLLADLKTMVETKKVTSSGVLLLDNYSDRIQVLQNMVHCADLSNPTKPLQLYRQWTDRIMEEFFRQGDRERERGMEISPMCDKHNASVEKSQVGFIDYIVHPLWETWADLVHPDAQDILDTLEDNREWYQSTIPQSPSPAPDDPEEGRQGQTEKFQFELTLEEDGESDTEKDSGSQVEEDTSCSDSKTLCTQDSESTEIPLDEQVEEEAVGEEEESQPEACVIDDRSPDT
Chain of Adenosine receptor A1 (Homo sapiens) (P30542 whole entry): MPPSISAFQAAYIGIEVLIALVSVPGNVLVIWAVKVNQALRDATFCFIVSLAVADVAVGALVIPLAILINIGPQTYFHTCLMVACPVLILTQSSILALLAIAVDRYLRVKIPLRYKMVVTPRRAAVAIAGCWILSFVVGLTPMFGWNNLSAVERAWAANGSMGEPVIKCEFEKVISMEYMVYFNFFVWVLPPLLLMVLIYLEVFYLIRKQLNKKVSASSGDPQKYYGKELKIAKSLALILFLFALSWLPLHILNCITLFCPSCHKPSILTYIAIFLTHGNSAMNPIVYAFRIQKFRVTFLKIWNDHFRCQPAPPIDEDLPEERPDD
Chain of cGMP-inhibited 3',5'-cyclic phosphodiesterase 3A (Q14432 whole entry): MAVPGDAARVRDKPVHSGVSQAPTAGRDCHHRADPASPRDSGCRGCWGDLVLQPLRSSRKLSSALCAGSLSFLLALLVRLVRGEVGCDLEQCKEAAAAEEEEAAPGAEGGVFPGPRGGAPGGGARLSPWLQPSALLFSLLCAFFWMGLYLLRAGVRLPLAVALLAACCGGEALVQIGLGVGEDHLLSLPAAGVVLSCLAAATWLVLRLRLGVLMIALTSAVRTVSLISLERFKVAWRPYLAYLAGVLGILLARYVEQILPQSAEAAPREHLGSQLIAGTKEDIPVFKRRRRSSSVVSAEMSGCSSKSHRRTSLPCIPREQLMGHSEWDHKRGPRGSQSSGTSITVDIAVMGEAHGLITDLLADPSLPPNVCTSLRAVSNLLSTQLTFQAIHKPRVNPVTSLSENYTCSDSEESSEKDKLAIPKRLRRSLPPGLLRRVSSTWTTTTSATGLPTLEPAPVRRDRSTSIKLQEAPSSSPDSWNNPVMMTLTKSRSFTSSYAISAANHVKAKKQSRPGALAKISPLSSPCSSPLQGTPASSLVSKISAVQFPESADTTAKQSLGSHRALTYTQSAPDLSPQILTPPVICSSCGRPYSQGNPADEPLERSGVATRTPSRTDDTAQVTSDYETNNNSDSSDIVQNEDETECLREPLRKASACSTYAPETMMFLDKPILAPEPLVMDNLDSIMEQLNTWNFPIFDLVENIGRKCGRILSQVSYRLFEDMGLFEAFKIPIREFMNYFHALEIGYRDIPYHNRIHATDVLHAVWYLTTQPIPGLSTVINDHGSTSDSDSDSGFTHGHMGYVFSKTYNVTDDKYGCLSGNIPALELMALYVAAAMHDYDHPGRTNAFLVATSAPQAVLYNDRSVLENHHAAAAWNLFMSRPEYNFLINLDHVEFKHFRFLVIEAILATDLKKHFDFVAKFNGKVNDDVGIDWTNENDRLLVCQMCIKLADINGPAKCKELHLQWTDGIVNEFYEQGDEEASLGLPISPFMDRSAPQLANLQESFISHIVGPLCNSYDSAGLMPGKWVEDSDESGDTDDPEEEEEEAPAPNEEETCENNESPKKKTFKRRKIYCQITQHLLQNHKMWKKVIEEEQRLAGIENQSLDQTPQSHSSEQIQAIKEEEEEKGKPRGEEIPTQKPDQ
Chain of Somatostatin receptor (Mus musculus) (P30935 whole entry): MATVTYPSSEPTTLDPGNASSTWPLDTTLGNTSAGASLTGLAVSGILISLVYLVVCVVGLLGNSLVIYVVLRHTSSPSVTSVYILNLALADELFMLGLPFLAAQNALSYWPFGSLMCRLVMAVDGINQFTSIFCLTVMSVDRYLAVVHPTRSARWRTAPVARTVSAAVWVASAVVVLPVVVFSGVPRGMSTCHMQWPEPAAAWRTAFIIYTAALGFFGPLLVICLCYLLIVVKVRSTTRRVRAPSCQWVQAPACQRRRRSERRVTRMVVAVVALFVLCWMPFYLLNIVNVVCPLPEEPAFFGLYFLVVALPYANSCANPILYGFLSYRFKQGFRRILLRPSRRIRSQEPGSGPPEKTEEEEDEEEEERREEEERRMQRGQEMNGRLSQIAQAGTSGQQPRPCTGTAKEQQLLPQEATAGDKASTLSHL
Chain of Somatostatin receptor (Mus musculus) (O08858 whole entry): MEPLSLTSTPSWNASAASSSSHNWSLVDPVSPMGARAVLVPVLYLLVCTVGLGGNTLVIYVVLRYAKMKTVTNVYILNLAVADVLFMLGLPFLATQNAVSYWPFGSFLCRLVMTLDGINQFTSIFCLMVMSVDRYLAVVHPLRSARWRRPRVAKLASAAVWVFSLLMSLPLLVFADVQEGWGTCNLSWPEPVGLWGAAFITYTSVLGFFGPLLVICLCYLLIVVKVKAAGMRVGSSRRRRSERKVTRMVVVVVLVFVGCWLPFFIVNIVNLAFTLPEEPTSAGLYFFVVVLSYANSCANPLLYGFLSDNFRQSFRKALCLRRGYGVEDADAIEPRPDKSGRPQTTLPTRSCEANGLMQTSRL
Chain of Somatostatin receptor (Mus musculus) (P30875 whole entry): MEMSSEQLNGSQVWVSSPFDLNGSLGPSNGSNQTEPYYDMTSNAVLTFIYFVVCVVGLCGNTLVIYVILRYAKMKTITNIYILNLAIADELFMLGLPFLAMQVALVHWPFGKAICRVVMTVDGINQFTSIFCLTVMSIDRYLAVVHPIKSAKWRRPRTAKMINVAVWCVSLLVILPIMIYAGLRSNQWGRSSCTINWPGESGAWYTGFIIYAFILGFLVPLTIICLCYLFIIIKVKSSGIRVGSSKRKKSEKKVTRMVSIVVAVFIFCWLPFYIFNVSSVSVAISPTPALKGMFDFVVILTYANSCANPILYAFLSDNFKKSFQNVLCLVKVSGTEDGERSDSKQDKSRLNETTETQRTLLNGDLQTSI
Chain of Somatostatin receptor (Mus musculus) (P30873 whole entry): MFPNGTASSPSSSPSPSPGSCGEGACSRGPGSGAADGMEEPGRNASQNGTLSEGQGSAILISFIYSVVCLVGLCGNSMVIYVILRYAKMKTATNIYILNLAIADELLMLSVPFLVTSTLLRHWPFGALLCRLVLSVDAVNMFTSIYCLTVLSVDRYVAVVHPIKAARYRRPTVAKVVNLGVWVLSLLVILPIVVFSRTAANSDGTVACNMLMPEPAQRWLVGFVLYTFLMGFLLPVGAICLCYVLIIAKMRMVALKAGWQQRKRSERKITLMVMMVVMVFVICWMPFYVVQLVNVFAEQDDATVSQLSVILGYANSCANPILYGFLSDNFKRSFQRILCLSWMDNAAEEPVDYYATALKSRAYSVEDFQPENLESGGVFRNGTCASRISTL
Chain of Somatostatin receptor (Mus musculus) (P49660 with tags, fused parts or gaps): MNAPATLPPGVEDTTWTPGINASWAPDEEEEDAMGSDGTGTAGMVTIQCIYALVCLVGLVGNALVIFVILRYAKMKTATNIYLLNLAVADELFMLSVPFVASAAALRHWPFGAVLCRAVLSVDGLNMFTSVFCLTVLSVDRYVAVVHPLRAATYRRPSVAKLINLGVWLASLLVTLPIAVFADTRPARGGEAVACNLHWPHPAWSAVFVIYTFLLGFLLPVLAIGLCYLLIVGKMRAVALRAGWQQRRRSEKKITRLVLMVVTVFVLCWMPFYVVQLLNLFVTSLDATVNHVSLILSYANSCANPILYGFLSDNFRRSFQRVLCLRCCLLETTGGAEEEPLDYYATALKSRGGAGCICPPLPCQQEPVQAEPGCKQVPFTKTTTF
Chain of Serine/threonine-protein kinase PAK 5 (Homo sapiens) (Q9P286 whole entry, looked up): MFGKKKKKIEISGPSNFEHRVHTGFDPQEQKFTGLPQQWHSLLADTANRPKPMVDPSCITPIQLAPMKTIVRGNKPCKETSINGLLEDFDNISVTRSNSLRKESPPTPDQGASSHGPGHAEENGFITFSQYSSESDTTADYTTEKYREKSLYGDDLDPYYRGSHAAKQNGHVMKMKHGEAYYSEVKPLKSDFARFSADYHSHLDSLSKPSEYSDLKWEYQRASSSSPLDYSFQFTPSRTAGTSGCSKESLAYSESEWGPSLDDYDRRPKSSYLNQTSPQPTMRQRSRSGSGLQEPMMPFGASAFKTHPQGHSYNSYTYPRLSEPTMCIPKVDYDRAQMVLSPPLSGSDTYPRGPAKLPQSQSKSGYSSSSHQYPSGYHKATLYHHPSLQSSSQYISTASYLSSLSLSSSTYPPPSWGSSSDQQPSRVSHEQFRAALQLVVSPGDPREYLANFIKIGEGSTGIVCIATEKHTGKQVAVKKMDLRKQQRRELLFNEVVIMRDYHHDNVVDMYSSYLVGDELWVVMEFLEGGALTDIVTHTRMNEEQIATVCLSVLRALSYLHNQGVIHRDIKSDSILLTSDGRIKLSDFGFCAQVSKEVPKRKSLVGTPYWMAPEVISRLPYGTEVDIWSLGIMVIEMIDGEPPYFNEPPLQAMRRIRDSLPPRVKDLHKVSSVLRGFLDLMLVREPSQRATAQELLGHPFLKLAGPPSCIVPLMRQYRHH

A word on the Ki: it is a measure of affinity in units of concentration, obtained from inhibition or displacement. Take `c1ccc(C2CCN(c3cnc4c(N5CCOCC5)nccn34)CC2)cc1`: the Ki in experiment [1] is 1820 nM.

By inhibition is commonly meant the drop in the measured response relative to a control, in per cent. In the case of `COCCc1ccc(-c2c(C)nc3c(N4CCOCC4)ccnn23)cn1` [JNJ-42396302], the inhibition is 1% in [2]; -1% in [3]; 5% in experiment [4]; 0% in experiment [5]; 0% in experiment [6]; 0% in experiment [7]. In addition, the inhibition in experiment [10] is -4%; in experiment [12], 10%; in [16], -3%; in [20] it was 2%; in [21], -3%; in experiment [22] it was 7%. Moreover, the inhibition is 9% in experiment [24]; 4% in [26]; -3% in experiment [28]; 1% in experiment [29]; 11% in experiment [32]; -6% in experiment [34]. Also, the inhibition was 11% in [39], 7% in experiment [41] and 0% in [42]. For the same compound, the effect turned out to be 4.9% in [8]; 2.05% in [9]; 2.9% in the experiment filed under Rattus norvegicus [11]; 41.5% in the experiment listed under Rattus norvegicus [13]; 6.1% in experiment [14]; 2.8% in [15]. The effect in [17] was 4.45%; in experiment [18] it was 6.95%; in [19], -2.4%; in experiment [23], 8.9%; in experiment [25] it was 13.9%; in experiment [27], 1.9%. Moreover, the effect was 27.3% in [30]; 6.35% in [31]; 13.5% in [35]; 21.1% in the experiment filed under Rattus norvegicus [36]; 11.3% in experiment [37]; 5.2% in [38]. Further, the effect in [40] is 6.55%. Besides, the Ki in experiment [33] is 49000 nM; in experiment [43], 2200 nM; in [44] it was 13 nM.

Source of the values: ChEMBL document CHEMBL4800727 (2021).
